Legend:
[1] = tested on: haploid maize lines (Germplasm A, Germplasm B); test: Co-dominant ear induction by PBZ soil drench in colchicine-doubled haploid maize (Example 1); format: in vivo
Text: V1-V3 seedlings of two unique F1 hybrid-derived haploid maize lines, derived from: female heterotic group (Germplasm A) or male heterotic group (Germplasm B), were subjected to a bulk colchicine-based chromosome doubling treatment by removing the seedlings from soil or growth media at the V1-V3 growth stage and aligning their stems and wrapping them together along with several wooden rods into bundle a held together by a strip of aluminum foil (approximate foil strip dimensions were 6 in×18 in). The bundled plants were submerged in plant treatment solution comprising 1250 ppm of colchicine in a centrifuge container and then the entire sample was centrifuged at 50 g for 3 min while the shoot apical meristems (SAMs) remained submerged in the plant treatment agent solution.
Following the first centrifugation, the plant treatment solution was decanted and the seedlings subjected to an addition centrifugation at 335 g for 3 min. During the second centrifugation, the rod-wrap bundle supported the seedlings and prevented the SAMs from contacting the reserve treatment agent that was not absorbed by the plant during application of the centrifugal force.
Following the second centrifugation, the plants were removed from the centrifugation container and the rod-wrap bundle and rinsed with water to remove any remaining colchicine solution, and then recovered and tended in a light, humidity, and temperature-controlled greenhouse for several days before being transplanted to a nursery greenhouse. These centrifuge-based treatment methods are described in more detail in International application number PCT/US2015/028955, which is incorporated by reference herein in its entirety, however, standard doubling treatments can also be applied to any of the haploid doubling steps referred to herein.
Following colchicine doubling treatment, 15-20 plants from each germplasm were planted in pots at two different densities; either as single plants per pot (singles), or as two plants per pot (pairs).
Next, each plant received one of two different doses of PBZ, either 50 mL (low dose) or 60 mL (high dose) of a 2.5% PBZ solution (v/v; 0.4% of active ingredient) in water. These two different doses were applied by soil drench at either the V7 or V8 growth stage, which occurred a total of 23 or 26 days after the seedlings had been subjected to chromosome doubling treatment, respectively. A control group of plants received no treatment solution but were otherwise treated exactly as the experimental groups planted as singles. When pollen shed began at the tassels, the average number of silk-producing ears (i.e. co-dominant ears) were counted for each dosage, germplasm, and treatment time and the results summarized in Table. 1.

[2] = tested on: DH0 maize plants, Germplasm A; test: Doubling efficiency after co-dominant ear induction (Example 2); format: in vivo; settings: for DE04 doubling efficiency / DE20 doubling efficiency / DE30 doubling efficiency / DE50 doubling efficiency: Germplasm A DH0, 60 mL 2.5% PBZ
Text: An F1 hybrid-derived haploid induction population derived from female inbred maize plant Germplasm A was germinated in soil and tended in standard greenhouse maize growing conditions for approximately seven days. Seedlings were then subjected to a bulk colchicine-based chromosome doubling treatment as described above. Following treatment, seedlings were transplanted into pots and tended in a greenhouse at standard greenhouse maize growing conditions to recover.
Twenty-nine days after the colchicine doubling treatment, 77 of the DH0 seedlings were subjected to a co-dominant ear induction treatment comprising the addition of 60 mL of 2.5% PBZ (v/v) in water, which was poured into the soil surrounding the roots of each plant. The seedlings were then tended in standard greenhouse maize growing conditions until they flowered, at which time each plant that produced pollen was self-pollinated. After approximately 3-4 weeks, ears were harvested and the kernels (DH1 seeds) that formed on the treated DH0 plants were counted to determine doubling efficiencies.
Doubling efficiencies (DE) were calculated under four different constraints, depending on the minimum number of kernels an ear had to produce in order to even be included in the calculation. DE04 represents the portion of all the doubled DH0 plants that produced a total of at least four seeds when all ears were considered. DE20 represents the portion of all the doubled DH0 plants that produced a total of at least 20 kernels when all ears were considered. Similarly, DE30 represents the portion of doubled DH0 plants that produced a total of at least 30 kernels when all ears were considered, and DE50 represents the portion of doubled DH0 plants that produced a total of at least 50 kernels when all ears were considered.
Furthermore, the above doubling efficiencies were calculated once by considering only the kernels that formed on the primary ear of each plant (Ear1), once by considering only the kernels that formed on the primary and secondary ear of each plant (Ear2), once by considering only the kernels that formed on the primary, secondary, and tertiary ear of each plant (Ear3), and finally by considering all the kernels that formed on all the ears of each plant (Earall).

[3] = Ear 2 (primary and secondary ear)
[4] = Ear 3 (primary, secondary, tertiary ear)

In the case of CC(C)(C)[C@@H](O)[C@@H](Cc1ccc(Cl)cc1)n1cncn1 (relative stereo) [PBZ, (±)-(R*, R*)-beta-((4-chlorophenyl)methyl)-alpha-(1,1,-dimethylethyl)-1H-1,2,4,-triazole-1-ethanol], the “number of co-dominant ears formed per plant” value (“number … per plant” for short) ([1]; V7, Germplasm A, pairs, high dose (60 mL 2.5% PBZ)) is reported as 3.4, the “number … per plant” value ([1]; V7, Germplasm A, pairs, low dose (50 mL 2.5% PBZ)) is reported as 3 and the “number … per plant” value ([1]; V7, Germplasm A, singles, high dose (60 mL 2.5% PBZ)) is reported as 3.9. The “number … per plant” value ([1]; V7, Germplasm A, singles, low dose (50 mL 2.5% PBZ)) was 3.4, the “number … per plant” value ([1]; V7, Germplasm B, pairs, high dose (60 mL 2.5% PBZ)) was 1.5 and the “number … per plant” value ([1]; V7, Germplasm B, pairs, low dose (50 mL 2.5% PBZ)) was 1.5. The “number … per plant” value ([1]; V7, Germplasm B, singles, high dose (60 mL 2.5% PBZ)) was 3.3, the “number … per plant” value ([1]; V7, Germplasm B, singles, low dose (50 mL 2.5% PBZ)) was 2.7 and the “number … per plant” value ([1]; V8, Germplasm A, pairs, high dose (60 mL 2.5% PBZ)) was 2.2. For the same compound, the “number … per plant” value ([1]; V8, Germplasm A, pairs, low dose (50 mL 2.5% PBZ)) was 2.3, the “number … per plant” value ([1]; V8, Germplasm A, singles, high dose (60 mL 2.5% PBZ)) was 3.5 and the “number … per plant” value ([1]; V8, Germplasm A, singles, low dose (50 mL 2.5% PBZ)) was 2.3. For the same compound, the “number … per plant” value ([1]; V8, Germplasm B, pairs, high dose (60 mL 2.5% PBZ)) was 1.5, the “number … per plant” value ([1]; V8, Germplasm B, pairs, low dose (50 mL 2.5% PBZ)) was 1.5 and the “number … per plant” value ([1]; V8, Germplasm B, singles, high dose (60 mL 2.5% PBZ)) was 2.2. The “number … per plant” value ([1]; V8, Germplasm B, singles, low dose (50 mL 2.5% PBZ)) was 2.3, the “average EP (ear per plant), high dosage greater than low dosage by” value ([1]; all plants) was 0.31 and the “average EP, high-dose higher than low-dose by” value ([1]; singles only) was 0.55. The “minimum increase over control plants” value ([1]; singles, low dose) was at least 1.2 EP, the DE04 doubling efficiency ([2]; Ear 1 only) was 71% and the DE20 doubling efficiency ([2]; Ear 1 only) was 37%. For the same compound, the DE30 doubling efficiency ([2]; Ear 1 only) was 26%, the DE50 doubling efficiency ([2]; Ear 1 only) was 23% and the “reduction in DE between DE04 and DE20” value ([2]; Ear2) was 22%. The DE04 doubling efficiency [2, 3] was 76%, the DE20 doubling efficiency [2, 3] was 59% and the DE30 doubling efficiency [2, 3] was 47%. It also gave a DE50 doubling efficiency [2, 3] of 36%, a DE04 doubling efficiency [2, 4] of 76% and a DE20 doubling efficiency [2, 4] of 65%. It also gave a DE30 doubling efficiency [2, 4] of 58%, a DE50 doubling efficiency [2, 4] of 50% and a DE04 doubling efficiency ([2]; Ear All) of 76%. It also gave a DE20 doubling efficiency ([2]; Ear All) of 68%, a DE30 doubling efficiency ([2]; Ear All) of 58% and a DE50 doubling efficiency ([2]; Ear All) of 52%.

From patent publication US11917959B2, “Multi-ear system to enhance monocot plant yield” (Monsanto Technology LLC, priority 2015, dated 2024)
